32 compounds from patent US10399932B2, “Inhibitors of indoleamine-2,3-dioxygenase for the treatment of cancer” (BRISTOL-MYERS SQUIBB COMPANY, priority 2015, dated 2019) can be followed below.

pIC50: −log10 of the molar value.

human IDO1, sequence (P14902 whole entry): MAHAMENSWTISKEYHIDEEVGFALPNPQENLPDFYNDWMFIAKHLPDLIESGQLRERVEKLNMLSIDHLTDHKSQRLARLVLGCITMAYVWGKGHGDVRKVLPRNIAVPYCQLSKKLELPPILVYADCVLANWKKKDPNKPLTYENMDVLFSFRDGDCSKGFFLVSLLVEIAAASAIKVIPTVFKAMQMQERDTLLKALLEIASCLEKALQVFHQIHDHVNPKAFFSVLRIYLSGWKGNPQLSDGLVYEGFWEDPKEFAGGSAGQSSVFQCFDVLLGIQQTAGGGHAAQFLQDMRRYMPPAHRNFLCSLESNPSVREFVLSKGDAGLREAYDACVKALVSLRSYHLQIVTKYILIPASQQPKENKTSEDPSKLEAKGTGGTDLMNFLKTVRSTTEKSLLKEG

In the experiment the target is human IDO1 (Homo sapiens, UniProt P14902). Description: Assessment of human IDO-1 inhibitory activity in Hela cells (Interferon-gamma activated, Ehrlich reagent, absorbance at 490 nm). The class given is cell-based. On the set-up: endogenous in cells; host or cells: HeLa cells stimulated with interferon-gamma. The note with it: 18 hours. The procedure:
Exemplary compounds were tested for inhibition of IDO activity.
HeLa cells were seeded at 20,000 cells per 30 µL per well with RPMI/phenol red free media containing 10% FBS in a 384-well tissue culture plate (black with clear bottoms). 50 nL of compound was added to cells and incubated at 37° C. for one hour. 20 μL of the recombinant human Interferon-gamma (R&D System, Cat. #285-IF, at final concentration of 10 ng/ml) or recombinant murine Interferon-gamma (PEPROTECH® Inc., Cat. #315-05, final concentration of 5 ng/ml) was added to activate IDO signaling. The cells were incubated for 18 hours in 37° C. incubator with 5% CO2.
Compound treatment was stopped by adding 5 μl trichloroacetic acid to a final concentration of 3%. Subsequently, the cell plate was further incubated at 50° C. for 30 minute. An equal volume supernatant (20 μL) and 2% (w/v) Ehrlich reagent (4-dimethylaminobenzaldehyde) in glacial acetic acid were mixed in a new clear bottom 384-well plate. This plate was incubated at room temperature for 30 minutes. Absorbance at 490 nm was measured on Envision plate reader.
Compound IC50 values were calculated using counts from unstimulated (no INF-gamma treatment) wells as 100% inhibition. INF-gamma treatment without compound treatment as 0% inhibition.
In turn, `CCC(CC(=O)O)c1cc(Nc2cnc(OCC3CC3)nc2)c(N(CC)C2CCOCC2)cc1F` (single isomer, unassigned) [Example 863, 3-(5-((2-(cyclopropylmethoxy)pyrimidin-5-yl)amino)-4-(ethyl(tetrahydro-2H-pyran-4-yl)amino)-2-fluorophenyl) pentanoic acid] showed a pIC50 of more than 8.30.

Turning to `CCN(c1ccc([C@@H](COC)CC(=O)O)cc1NC(=O)Nc1ccc(C#N)cc1)C1CCOCC1` [Example 422 E1, (S)-3-(3-(3-(4-Cyanophenyl)ureido)-4-(ethyl(tetrahydro-2H-pyran-4-yl)amino)phenyl)-4-methoxybutanoic acid], the pIC50 is less than 7.30.

In the case of `CCC1COCCN1c1ccc([C@@H](COC)CC(=O)O)cc1Nc1ccc(C#N)cn1` (single isomer, unassigned) [Example 1297], the negative logarithm of the IC50 (pIC50) is less than 7.30.

Take `CCCN(c1ccc(C(CC)CC(=O)O)cc1Nc1ccc(C#N)cc1)C1CCS(=O)(=O)CC1` (single isomer, unassigned) [Example 12 Enantiomer 2, 3-(3-((4-Cyanophenyl)amino)-4-((1,1-dioxidotetrahydro-2H-thiopyran-4-yl)(propyl)amino)phenyl)pentanoic acid]: the negative-log IC50 (pIC50) is more than 8.30.

Compound `CCC(CC(=O)O)c1ccc(N(CC)C2CCCOC2)c(Nc2ccc(C#N)cc2)c1` (single isomer, unassigned) [Example 64, 3-(3-((4-cyanophenyl)amino)-4-(ethyl (tetrahydro-2H-pyran-3-yl)amino)phenyl)pentanoic acid] had a pIC50 of more than 8.30.

In turn, `CCN(c1cc(F)c(C(COC)CC(=O)O)cc1Nc1ccc(Cl)cc1)C1CCOCC1` (centres unmarked) [Example 845, 3-(5-((4-chlorophenyl)amino)-4-(ethyl(tetrahydro-2H-pyran-4-yl)amino)-2-fluorophenyl)-4-methoxybutanoic acid] showed a pIC50 of more than 7.30.

`CCC(CC(=O)O)c1ccc(N(CC(F)F)C2CCOCC2)c(Nc2ccc(Cl)cc2)c1` (single isomer, unassigned) [Example 318 Enantiomer 2, 3-(3-((4-Chlorophenyl)amino)-4-((2,2-difluoroethyl)(tetrahydro-2H-pyran-4-yl)amino)phenyl)pentanoic acid]: the pIC50 was more than 8.30.

On to `C[C@@H]1CN(c2ccc(C(CC(=O)O)C3CC3)cc2Nc2ccc(Cl)cc2)C[C@H](C)O1` (single isomer, unassigned) [Example 248], for which the pIC50 is more than 7.30.

“3-(4-((1,1-dioxidotetrahydro-2H-thiopyran-4-yl)(ethyl)amino)-3-((4-fluorophenyl)amino)phenyl)-4-isopropoxybutanoic acid [Example 340]” had a pIC50 of more than 7.30.

In turn, `CCC1COCCN1c1ccc([C@H](COC)CC(=O)O)cc1Nc1ccc(Cl)cc1` (single isomer, unassigned) [Example 1308] gave a pIC50 of more than 7.30.

Compound `COCC(CC(=O)O)c1ccc(N(CC(F)F)C2CCOCC2)c(Nc2ccc(Cl)cc2)c1` (single isomer, unassigned) [Example 321 Enantiomer 2, 3-(3-((4-Chlorophenyl)amino)-4-((2,2-difluoroethyl)(tetrahydro-2H-pyran-4-yl)amino)phenyl)-4-methoxybutanoic acid] showed a pIC50 of more than 8.30.

In turn, `CCN(c1cc(F)c([C@@H](COC)CC(=O)O)cc1Nc1ccc(Cl)cc1)C1CCOCC1` (single isomer, unassigned) [Example 844, 3-(5-((4-Chlorophenyl)amino)-4-(ethyl(tetrahydro-2H-pyran-4-yl)amino)-2-fluorophenyl)-4-methoxybutanoic acid] showed a pIC50 of more than 8.30.

With `CCN(c1ccc(C(CC(=O)O)C2CC2)cc1NC(=O)Nc1ccc(C#N)cc1)C1CCOCC1` (single isomer, unassigned) [Example 255 Enantiomer 2, 3-(3-(3-(4-Cyanophenyl)ureido)-4-(ethyl(tetrahydro-2H-pyran-4-yl)amino)phenyl)-3-cyclopropylpropanoic acid], the pIC50 is less than 7.30.

In turn, “(S)-3-(4-(ethyl(tetrahydro-2H-pyran-4-yl)amino)-3-((2-(tetrahydro-2H-pyran-4-yl)pyrimidin-5-yl)amino)phenyl)-4-methoxybutanoic acid [Example 366]” showed a pIC50 of less than 7.30.

For `CCOc1ncc(Nc2cc(C(CC)CC(=O)O)ccc2N(CC)C2CCOC2)cn1` (single isomer, unassigned) [Example 945 D2, 3-(3-((2-Ethoxypyrimidin-5-yl)amino)-4-(ethyl (tetrahydrofuran-3-yl)amino)phenyl)pentanoic acid], the pIC50 is more than 7.30.

The compound `CCN(c1ccc([C@H](COC)CC(=O)O)cc1Nc1ccc(Cl)cc1)C1CCOCC1` (single isomer, unassigned) [Example 413] had a negative-log IC50 (pIC50) of more than 8.30.

Turning to `CCC(CC(=O)O)c1ccc(N2CC(O)(c3ccc(F)cc3)C2)c(Nc2ccc(C#N)cc2)c1` (single isomer, unassigned) [Example 1255, 3-(3-((4-cyanophenyl)amino)-4-(3-(4-fluorophenyl)-3-hydroxyazetidin-1-yl)phenyl)pentanoic acid], the pIC50 was more than 7.30.

As for `COCCN(c1ccc(C(COC)CC(=O)O)cc1Nc1ccc(Cl)cc1)C1CCOCC1` (single isomer, unassigned) [Example 256 Enantiomer 2, 3-(3-((4-Chlorophenyl)amino)-4-((2-methoxyethyl)(tetrahydro-2H-pyran-4-yl)amino)phenyl)-4-methoxybutanoic acid], the pIC50 was more than 8.30.

Take `COCC(CC(=O)O)c1ccc(N2C[C@@H](C)O[C@@H](C)C2)c(Nc2ccc(C#N)cc2)c1` (single isomer, unassigned) [602 E2]: the pIC50 is less than 7.30.

As to `CCOc1ncc(Nc2cc(C(CC)CC(=O)O)ccc2N(CCOC)C2CCOCC2)cn1` (single isomer, unassigned) [Example 1263, 3-(3-((2-ethoxypyrimidin-5-yl)amino)-4-((2-methoxyethyl)(tetrahydro-2H-pyran-4-yl)amino)phenyl)pentanoic acid], the pIC50 is more than 7.30.

In the case of `CCOc1ncc(Nc2cc(C(CC)CC(=O)O)cc(F)c2N(CC)C2CCOCC2)cn1` (single isomer, unassigned) [Example 139, 3-(3-((2-ethoxypyrimidin-5-yl)amino)-4-(ethyl (tetrahydro-2H-pyran-4-yl)amino)-5-fluorophenyl)pentanoic acid], the pIC50 is more than 8.30.

Consider `CCOc1ncc(Nc2cc(C(COC)CC(=O)O)ccc2N2CCOC[C@@H]2C(C)C)cn1` (single isomer, unassigned) [Example 935], for which the negative logarithm of the IC50 (pIC50) was less than 7.30.

As to `COCC(CC(=O)OC)c1ccc(N(CC(F)F)C2CCOCC2)c(Nc2ccc(Cl)cc2)c1` (centres unmarked) [Example 319, methyl 3-(3-((4-chloro-phenyl)amino)-4-((2,2-difluoroethyl) (tetrahydro-2H-pyran-4-yl)amino)phenyl)-4-methoxy-butanoate], the pIC50 is more than 8.30.

On to `CCOc1ncc(Nc2cc(C(CC)CC(=O)O)ccc2N(CC)C2CCCOC2)cn1` (single isomer, unassigned) [Example 66, 3-(3-((2-ethoxypyrimidin-5-yl)amino)-4-(ethyl(tetrahydro-2H-pyran-3-yl)amino)phenyl)pentanoic acid], for which the pIC50 is more than 8.30.

`CCC1COCCN1c1ccc([C@@H](COC)CC(=O)O)cc1Nc1ccc(C#N)c(F)c1` (single isomer, unassigned) [Example 1296] had a pIC50 of less than 7.30.

Regarding “(R)-3-(4-(ethyl(tetrahydro-2H-pyran-4-yl)amino)-3-((2-(tetrahydro-2H-pyran-4-yl)pyrimidin-5-yl)amino)phenyl)-4-methoxybutanoic acid [Example 403]”, the pIC50 is less than 7.30.

In turn, `CCN(c1ccc(C(CC(=O)O)C2CC2)cc1Nc1ccc(OC)nc1)C1CCS(=O)(=O)CC1` (single isomer, unassigned) [Example 346, 3-cyclopropyl-3-(4-((1,1-dioxidotetrahydro-2H-thiopyran-4-yl)(ethyl)amino)-3-((6-methoxypyridin-3-yl)amino)phenyl)propanoic acid] showed a pIC50 of more than 7.30.

`CCOc1ncc(Nc2cc([C@@H](COC)CC(=O)O)ccc2N2CCOCC2CC)cn1` (single isomer, unassigned) [Example 1299] gave a pIC50 of less than 7.30.

The compound `CC[C@@H](CC(=O)O)c1ccc(N(CC)C2CCOCC2)c(Nc2ccc(Cl)cn2)c1` (single isomer, unassigned) [Example 460] showed a pIC50 of more than 8.30.

As for `CCOc1ncc(Nc2cc(C(CC)CC(=O)O)c(F)cc2N(CC)C2CCOCC2)cn1` (single isomer, unassigned) [Example 865, 3-(5-((2-ethoxypyrimidin-5-yl)amino)-4-(ethyl (tetrahydro-2H-pyran-4-yl)amino)-2-fluorophenyl) pentanoic acid], the pIC50 was more than 8.30.

As to `COCCN(c1ccc(C(COC)CC(=O)O)cc1NC(=O)Nc1ccc(Cl)cc1F)C1CCOCC1` (single isomer, unassigned) [Example 263, 3-(3-(3-(4-chloro-2-fluorophenyl)ureido)-4-((2-methoxyethyl)(tetrahydro-2H-pyran-4-yl)amino)phenyl)-4-methoxybutanoic acid], the pIC50 was less than 7.30.

`CCC(CC(=O)O)c1ccc(N2CCC(C)CC2)c(Nc2ccc(C#N)cc2)c1` (single isomer, unassigned) [Example 41 Enantiomer 2, 3-(3-((4-Cyanophenyl)amino)-4-(4-methylpiperidin-1-yl)phenyl)pentanoic acid] had a pIC50 of more than 7.30.
